# Source: patent US6555528B2 (Board of Supervisors of Louisiana State University and …, priority 1999, dated 2003)
# Like-named read-outs stand apart in the source and are kept apart here.
# Tests used:
# [1] = target: T1, biotin carboxylase from Escherichia coli (Escherichia coli, UniProt P24182); experiment: Biotin carboxylase inhibition assay (spectrophotometric, ADP production coupled to pyruvate kinase/lactate dehydrogenase); format: biochemical
# T1 construct: histidine-tag (N); made in house; host or cells: E. coli BL21(DE3)pLysS
# Protocol: It catalyzes the first partial reaction shown above as reaction (1). […] See S. Li et al., J. Biol. Chem., vol. 267, 855-863 (1992); and H. Kondo et al., Proc. Natl. Acad. Sci. USA, vol. 88, pp. 9730-9733 (1991).
# Purification was performed with a histidine-tag attached to the amino terminus of a mutant form of the enzyme and nickel affinity chromatography as described in C. […] 38, pp. 3393-3400 (1999).
# The amount of ADP was determined using pyruvate kinase and lactate dehydrogenase, and the oxidation of NADH was followed at 340 nm. Each measurement was carried out in a volume of 0.5 ml in 1 cm path length quartz cuvettes. The reaction mixture contained 10 units of pyruvate kinase, 18 units of lactate dehydrogenase, 0.5 mM phosphoenolpyruvate, 0.2 mM NADH, 8 mM MgCl2 and 100 mM HEPES at pH 8.0. For inhibition studies compound 1 was dissolved in water, and the pH adjusted to 8 with HCl. The concentration of compound 1 was assayed by phosphorus analysis using the method of B. Ames et al., J. Biol. Chem., vol. 235, pp. 769-775 (1960).
# [2] = Water solubility (observation at synthesis); format: physicochemical
structure (smiles),measurement,setting,value
"O=C(O)CCCCC1SCC2C1NC(=O)N2C(=O)CP(=O)(O)O (stereo not drawn) [Compound 1, 5-(6,8-Diaza-7-oxo-6-(2-phosphonoacetyl)-3-thiabicyclo[3.3.0] Oct-2-yl) pentanoic acid]",Ki,"[1]; competitive inhibition versus ATP, read-out: slope inhibition constant",8 mM
same,Ki,"[1]; preliminary characterization, 9 mM bicarbonate, 0.1 mM ATP, 100 mM biotin, pH 8.0, read-out: inhibition constant",~8 mM
same,water solubility,[2],water soluble
O=C(O)CP(=O)(O)O [Phosphonoacetate],type of inhibition versus ATP,[1]; versus ATP,competitve inhibition
same,type of inhibition versus bicarbonate,[1]; versus bicarbonate,noncompetitve inhibition
O=C(O)CCCC[C@@H]1SC[C@@H]2NC(=O)N[C@@H]21 [biotin],substrate inhibition of biotin carboxylase,[1]; biotin as substrate,noncompetitive substrate inhibitor
